# Biological target: T1, NMDA receptor composed of four subunits including 2 sets of heterodimers of NR1 and NR2B (Homo sapiens, UniProt Q13224)
# T1 construct: host or cells: HEK293 (tetracycline-induced expression)
# Assay: NR2B Ca2+ influx assay (FLIPR, Fluo-4) in HEK293 cells expressing human GRIN1 and GRIN2B
# Type: cell-based
# Settings: HEK293, 10 μM final compound concentration, glutamic acid/glycine-induced Ca2+ influx, read-out: inhibitory rate (10 μM compound concentration)
# Outline: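 Tetracycline-induced (2 h) HEK293 cells expressing human GRIN1/GRIN2B, Fluo-4-loaded, were preincubated 15 min at room temperature with compound at 10 μM final. FLIPR recorded Ca2+ influx every 3 s for 5 min after glutamate/glycine addition (30 μM in added buffer); inhibition from cumulative fluorescence relative to agonist-free wells.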
# T1 sequence (Q13224 27-1484, other chains not shown): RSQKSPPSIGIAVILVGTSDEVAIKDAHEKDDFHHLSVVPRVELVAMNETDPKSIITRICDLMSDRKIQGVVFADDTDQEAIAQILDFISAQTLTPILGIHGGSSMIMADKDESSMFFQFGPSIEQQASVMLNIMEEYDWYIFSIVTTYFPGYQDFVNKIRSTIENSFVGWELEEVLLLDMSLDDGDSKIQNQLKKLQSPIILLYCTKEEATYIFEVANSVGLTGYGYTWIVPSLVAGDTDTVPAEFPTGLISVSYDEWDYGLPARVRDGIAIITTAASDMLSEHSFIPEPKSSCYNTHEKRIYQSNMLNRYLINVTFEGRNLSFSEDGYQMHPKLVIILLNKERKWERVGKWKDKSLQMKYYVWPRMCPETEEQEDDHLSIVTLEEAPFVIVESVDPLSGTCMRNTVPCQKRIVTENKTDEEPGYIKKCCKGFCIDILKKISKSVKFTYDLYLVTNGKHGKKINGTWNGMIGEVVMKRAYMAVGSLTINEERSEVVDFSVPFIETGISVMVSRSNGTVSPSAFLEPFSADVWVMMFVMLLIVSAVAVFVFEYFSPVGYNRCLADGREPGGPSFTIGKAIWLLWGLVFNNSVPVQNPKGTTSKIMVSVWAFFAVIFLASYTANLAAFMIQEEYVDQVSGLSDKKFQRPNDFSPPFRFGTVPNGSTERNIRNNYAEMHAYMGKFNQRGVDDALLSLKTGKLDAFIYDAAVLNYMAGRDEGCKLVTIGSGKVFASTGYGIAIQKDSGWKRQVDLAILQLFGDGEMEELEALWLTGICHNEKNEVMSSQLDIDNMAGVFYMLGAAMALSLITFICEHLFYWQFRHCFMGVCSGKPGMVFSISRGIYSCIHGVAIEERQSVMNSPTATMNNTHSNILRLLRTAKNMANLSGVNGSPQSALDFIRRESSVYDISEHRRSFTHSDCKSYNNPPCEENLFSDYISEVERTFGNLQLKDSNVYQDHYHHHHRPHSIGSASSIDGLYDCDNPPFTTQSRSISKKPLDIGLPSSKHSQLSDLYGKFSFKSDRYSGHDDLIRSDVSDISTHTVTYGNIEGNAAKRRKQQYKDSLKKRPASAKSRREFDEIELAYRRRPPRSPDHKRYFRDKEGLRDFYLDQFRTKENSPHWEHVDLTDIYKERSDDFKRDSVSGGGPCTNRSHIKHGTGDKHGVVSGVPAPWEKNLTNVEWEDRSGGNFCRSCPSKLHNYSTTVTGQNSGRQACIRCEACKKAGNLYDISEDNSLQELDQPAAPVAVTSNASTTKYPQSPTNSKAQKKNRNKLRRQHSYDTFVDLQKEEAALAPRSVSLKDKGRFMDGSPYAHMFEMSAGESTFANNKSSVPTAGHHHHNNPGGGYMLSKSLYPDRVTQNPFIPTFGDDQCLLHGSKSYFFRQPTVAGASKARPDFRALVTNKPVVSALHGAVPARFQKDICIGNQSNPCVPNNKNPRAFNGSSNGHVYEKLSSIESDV
row,inhibition at 10 µM [%],Compound
1,93,"O=C(NCc1c(C2CC2)ccc2[nH]ncc12)c1ccc(OC(F)F)c(Cl)c1 [Example 107, 3-chloro-N-((5-cyclopropyl-1H-indazol-yl)methyl)-4-(difluoromethoxy)-benzamide]"
2,94,"O=C(NCc1c(C2CC2)ccc2[nH]ncc12)c1cc(F)c(C(F)F)c(F)c1 [Example 108, N-((5-cyclopropyl-1H-indazol-4-yl)methyl)-(difluoromethyl)-3,5-dlfluorobenzamide]"
3,92,"Cc1ccc2ncn(C)c2c1CNC(=O)c1ccc(OC(F)F)c(F)c1 [Example 109, 4-(difluoromethoxy)-N-((1,6-dimethyl-1H-benzimidazol-7-yl)methyl)-3-fluorobenzamide]"
4,92,"COc1ccc2ncn(C)c2c1CNC(=O)c1csc(C(F)F)c1 [Example 110, 5-(difluoromethyl)-N-((6-methoxy-1-methyl-1H-benzimidazol-7-yl)methyl)thiophene-3-carboxamide]"
5,93,"COc1ccc2ncn(C)c2c1CNC(=O)c1cc(F)c(OC)c(Cl)c1 [Example 111, 3-chloro-5-fluoro-4-methoxy-N-((6-methoxy-1-methyl-1H-benzimidazol-7-yl)methyl)benzamide]"
6,92,"COc1ccc2ncn(C)c2c1CNC(=O)c1ccc(C(F)F)c(Cl)c1 [Example 112, 3-chloro-4-(difluoromethyl)-N-((6-methoxy-1-methyl-1H-benzimidazol-7-yl)methyl)benzamide]"
7,90,"COc1ccc2ncn(C)c2c1CNC(=O)c1cnc(C(F)(F)F)c(Cl)c1 [Example 113, 5-chloro-N-((6-methoxy-1-methyl-1H-benzimidazol-7-yl)methyl)-6-(trifluoromethyl)-nicotinamide]"
8,87,"COc1ccc2ncn(C)c2c1CNC(=O)c1ccc(C)cc1 [Example 114, N-((6-methoxy-1-methyl-1H-benzimidazol-7-yl)methyl)-4-methylbenzamide]"
9,93,"COc1ccc2ncn(C)c2c1CNC(=O)c1csc(C2CC2)c1 [Example 115, 5-cyclopropyl-N-((6-methoxy-1-methyl-1H-benzimidazol-7-yl)methyl)thiophene-3-carboxamide]"
10,90,"COc1ccc2ncn(C)c2c1CNC(=O)c1ccc(Cl)cc1 [Example 116, 4-chloro-N-((6-methoxy-1-methyl-1H-benzimidazol-7-yl)methyl)benzamide]"
11,90,"COc1ccc2ncn(C)c2c1CNC(=O)c1ccc(C(F)(F)F)cc1 [Example 117, N-((6-methoxy-1-methyl-1H-benzimidazol-7-yl)methyl)-4-(trifluoromethyl)benzamide]"
12,94,"O=C(NCc1c(C2CC2)ccc2[nH]ncc12)c1ccc(C(F)F)c(F)c1 [Example 118, N-((5-cyclopropyl-1H-indazol-4-yl)methyl)-4-(difluoromethyl)-3-fluorobenzamide]"
13,94,"CCOc1ncc(C(=O)NCc2c(C3CC3)ccc3[nH]ncc23)cc1F [Example 119, N-((5-cyclopropyl-1H-indazol-4-yl)methyl)-6-ethoxy-5-fluoronicotinamide]"
14,92,"O=C(NCc1c(C2CC2)ccc2[nH]ncc12)c1ccc(OC(F)F)c(F)c1 [Example 120, N-((5-cyclopropyl-1H-indazol-4-yl)methyl)-4-(difluoromethoxy)-3-fluorobenzamide]"
15,91,"O=C(NCc1c(C2CC2)ccc2[nH]ncc12)c1cnc(OC(F)F)c(Cl)c1 [Example 121, 5-chloro-N-((5-cyclopropyl-1H-indazol-4-yl)methyl)-6-(difluoromethoxy)-nicotinamide]"
16,90,"CCc1ccc(C(=O)NCc2c(OC)ccc3ncn(C)c23)s1 [Example 122, 5-ethyl-N-((6-methoxy-1-methyl-1H-benzimidazol-7-yl)methyl)thiophene-2-carboxamide]"
17,88,"COc1ccc2ncn(C)c2c1CNC(=O)c1ccc(C(F)F)cc1 [Example 123, 4-(difluoromethyl)-N-((6-methoxy-1-methyl-1H-benzimidazol-7-yl)methyl)benzamide]"
18,90,"COc1ccc2ncn(C)c2c1CNC(=O)c1ccc(C(F)F)c(F)c1 [Example 124, 4-(difluoromethyl)-3-fluoro-N-((6-methoxy-1-methyl-1H-benzimidazol-7-yl)methyl)benzamide]"
19,92,"CCOc1ccc2ncn(C)c2c1CNC(=O)c1csc(C(F)F)c1 [Example 125, 5-(difluoromethyl)-N-((6-ethoxy-1-methyl-1H-benzimidazol-7-yl)methyl)thiophene-3-carboxamide]"
20,88,"CCOc1ccc2ncn(C)c2c1CNC(=O)c1ccc(C(F)F)s1 [Example 126, 5-(difluoromethyl)-N-((6-ethoxy-1-methyl-1H-benzimidazol-7-yl)methyl)thiophene-2-carboxamide]"

row,inhibition at 10 µM [%],Compound
1,92,"CCOc1ccc2ncn(C)c2c1CNC(=O)c1cc(F)c(OC)c(F)c1 [Example 127, N-((6-ethoxy-1-methyl-1H-benzimidazol-7-yl)methyl)-3,5-difluoro-4-methoxybenzamide]"
2,91,"CCOc1ccc2ncn(C)c2c1CNC(=O)c1ccc(C(F)(F)F)cc1 [Example 128, N-((6-ethoxy-1-methyl-1H-benzimidazol-7-yl)methyl)-4-(trifluoromethyl)-benzamide]"
3,88,"COc1ccc(C(=O)NCc2c(C)ccc3ncn(C)c23)cc1F [Example 129, N-((1,6-dimethyl-1H-benzimidazol-7-yl)methyl)-3-fluoro-4-methoxybenzamide]"
4,91,"CCc1ccc2ncn(C)c2c1CNC(=O)c1ccc(OC)c(F)c1 [Example 130, N-((6-ethyl-1-methyl-1H-benzimidazol-7-yl)methyl)-3-fluoro-4-methoxybenzamide]"
5,93,"CCc1ccc2ncn(C)c2c1CNC(=O)c1cc(F)c(OC(F)F)c(F)c1 [Example 131, 4-(difluoromethoxy)-N-((6-ethyl-1-methyl-1H-benzimidazol-7-yl)methyl)-3,5-difluorobenzamide]"
6,90,"CCc1ccc2ncn(C)c2c1CNC(=O)c1csc(C(F)F)c1 [Example 132, 5-(difluoromethyl)-N-((6-ethyl-1-methyl-1H-benzimidazol-7-yl)methyl)thiophene-3-carboxamide]"
7,91,"CCc1ccc2ncn(C)c2c1CNC(=O)c1ccc(C(F)F)cc1 [Example 133, 4-(difluoromethyl)-N-((6-ethyl-1-methyl-1H-benzimidazol-7-yl)methyl)benzamide]"
8,90,"Cc1ccc2ncn(C)c2c1CNC(=O)c1cnc(OC(F)F)c(F)c1 [Example 134, 6-(Difluoromethoxy)-N-((1,6-dimethyl-1H-benzimidazol-7-yl)methyl)-5-fluoronicotinamide]"
9,90,"Cc1ccc2ncn(C)c2c1CNC(=O)c1ccc(OC(F)F)cc1 [Example 135, 4-(difluoromethoxy)-N-((1,6-dimethyl-1H-benzimidazol-7-yl)methyl)benzamide]"
10,83,"Cc1ccc2ncn(C)c2c1CNC(=O)c1ccc(C(F)F)c(F)c1 [Example 136, 4-(difluoromethyl)-N-((1,6-dimethyl-1H-benzimidazol-7-yl)methyl)-3-fluorobenzamide]"
11,72,"Cc1ccc2ncn(C)c2c1CNC(=O)c1ccc(C(F)F)s1 [Example 137, 5-(difluoromethyl) -N-((1,6-dimethyl-1H-benzimidazol-7-yl)methyl)thiophene-2-carboxamide]"
12,88,"Cc1ccc2ncn(C)c2c1CNC(=O)c1ccc(OC(F)(F)F)nc1 [Example 138, N-((1,6-dimethyl-1H-benzimidazol-7-yl)methyl)-6-(trifluoromethoxy)-nicotinamide]"
13,91,"COc1ccc2ncn(C)c2c1CNC(=O)c1csc(C(F)(F)F)c1 [Example 139, N-((6-methoxy-1-methyl-1H-benzimidazol-7-yl)methyl)-5-(trifluoromethyl)thiophene-3-carboxamide]"
14,90,"CCOc1ccc2ncn(C)c2c1CNC(=O)c1ccc(C(F)F)cc1 [Example 140, 4-(difluoromethyl)-N-((6-ethoxy-1-methyl-1H-benzimidazol-7-yl)methyl)benzamide]"
15,90,"CCOc1ccc2ncn(C)c2c1CNC(=O)c1ccc(C(F)F)c(F)c1 [Example 141, 4-(difluoromethyl)-N-((6-ethoxy-1-methyl-1H-benzimidazol-7-yl)methyl)-3-fluorobenzamide]"
16,85,"Cc1ccc2ncn(C)c2c1CNC(=O)c1csc(C(F)F)c1 [Example 142, 5-(difluoromethyl)-N-((1,6-dimethyl-1H-benzimidazol-7-yl)methyl)thiophene-3-carboxamide]"
17,91,"CCc1ccc2ncn(C)c2c1CNC(=O)c1cnc(OC(F)F)c(F)c1 [Example 143, 6-(difluoromethoxy)-N-((6-ethyl-1-methyl-1H-benzimidazol-7-yl)methyl)-5-fluoronicotinamide]"
18,90,"Cc1ccc2ncn(C)c2c1CNC(=O)c1csc(C2CC2)c1 [Example 144, 5-cyclopropyl-N-((1,6-dimethyl-1H-benzimidazol-7-yl)methyl)thiophene-3-carboxamide]"
19,92,"CCc1ccc2ncn(C)c2c1CNC(=O)c1ccc(OC)cc1 [Example 145, N-((6-ethyl-1-methyl-1H-benzimidazol-7-yl)methyl)-4-methoxybenzamide]"
20,90,"CCc1ccc2ncn(C)c2c1CNC(=O)c1ccc(C(F)F)c(F)c1 [Example 146, 4-(difluoromethyl)-N-((6-ethyl-1-methyl-1H-benzimidazol-7-yl)methyl)-3-fluorobenzamide]"

# Source: patent publication US11230541B2, “Heterocyclic compound” (Takeda Pharmaceutical Company Limited, priority 2017, dated 2022)
